Test results reported in EP0705258B1, “AZOLYL-CYCLIC AMINE DERIVATIVES WITH IMMUNOMODULATORY ACTIVITY” (Knoll AG, priority 1993, dated 1995).

These compounds were tested on lymphocyte proliferation (BALB/c responder and mitomycin C treated C57BL/6 stimulator spleen cells) (assay: Mixed Lymphocyte Reaction (Test A), one-way MLR, tritiated thymidine incorporation). Settings: Mus musculus; concentration causing 50% inhibition of lymphocyte proliferation, by linear interpolation; ≤ = active at this concentration but not tested at lower doses.
Assay type: cell-based, mice
Method: A mixed lymphocyte reaction (MLR) occurs when lymphocytes from two genetically dissimilar individuals, or inbred strains of mice are cultured together. An MLR results in the activation and proliferation of lymphocytes, which is measured by the incorporation of radiolabelled thymidine into the cellular DNA synthesised during cell division. A 'one-way' MLR is used to determine the immunosuppressive activity of test compounds in vitro. In this reaction one population of spleen cells serves as the stimulator cells and is treated with mitomycin C to prevent cell division. Spleen cells from a second allogeneic population (responder cells) are untreated and when mixed with the stimulator cells are able to undergo division which is measured. The degree of proliferation is measured in the presence and absence of test compound to assess the immunosuppressive activity of the compound.
The techniques for carrying out lymphocyte proliferation assays including MLRs are well known, eg Bradley, pages 156-166, in Mishell and Shiigi, Eds. Selected Methods in Cellular Immunology (Freeman, San Francisco, 1980); and Battisto et al, methods in Enzymology 1987; 150: 83-91. Various slight modifications of these techniques are in use and that used herein is described in Gibb, Webber and Bowen, J Immunological Methods 1985; 81: 107-113.
Cell suspensions obtained from the spleens of female BALB/c and C57BL/6 strain mice of between 6 and 9 weeks of age were used as sources of responder and stimulator cells respectively. The mice were killed using a rising concentration of CO2 and the spleens removed aseptically and teased using a scalpel and forceps to produce a single cell suspension in Hanks balanced salt solution (HBSS). The suspensions were filtered through cell strainers (Falcon), sedimented by centrifugation and resuspended in Tris-buffered ammonium chloride pH 7.2 (medium D) to lyse the erythrocytes. The cells were sedimented again and washed twice in HBSS before resuspending in complete RPMI 1640 tissue culture medium (medium E). The C57BL/6 cells were resuspended to 9 mls per spleen and a solution of mitomycin C at 400 µg/ml in medium E added to give a final concentration of 40 µg/ml. After incubation of the C57BL/6 cells at 37°C for 30 minutes in an atmosphere of 5% CO2 and 95% air, the cells were sedimented and washed 3 times in medium E. Both cell suspensions were diluted in medium E to 5 x 10^6 cells/ml. 100µl of each of the responder and stimulator cell suspensions were aliquoted into the wells of 96 well flat bottom microtitre plates containing 50 µl of test compound at an appropriate dilution (initially 50 µM diluted in medium E from a stock solution at 100 mM in dimethyl sulphoxide) giving a final test compound concentration of 10 µM (final dilution). Compounds active at this concentration were tested at further final dilution of 1 µM, 0.1 µM and 0.01 µM and 0.001 µM to determine the concentration of test compound which causes 50% inhibition of the immune response (IC50). After four days of culture at 37°C in a humidified atmosphere of 5% CO2 and 95% air, 1 µCi of tritiated thymidine in 20 µl of medium E was added to each well and the plates incubated for a further 24 hours. Cells were then harvested onto Inotech G7 glass fibre filter mats using an Inotech cell harvester. The filters were transferred to vials to which 2 ml of Packard Emulsifier-Safe scintillation fluid was added and the radioactivity from the incorporated thymidine was counted in a Packard liquid scintillation counter. The counts per minute (CPM) reflect the degree of lymphocyte proliferation. The data were analysed to determine the percentage inhibition of lymphocyte proliferation by the test compound. […]

| SMILES | IC50 |
| --- | --- |
| c1ccc(OCCN2CCC(CCn3ccnc3)CC2)cc1 [Example 87, 4-[2-(Imidazol-1-yl)ethyl]-1-(2-phenoxyethyl)piperidine] | 8 µM |
| C(=Cc1ccccc1)CN1CCC(CCn2ccnc2)CC1 [Example 90, 1-Cinnamyl-4-[2-(imidazol-1-yl)ethyl]-piperidine] | 2.2 µM |
| O=C(CN1CCC(CCn2ccnc2)CC1)Nc1ccc(C(F)(F)F)cc1 [Example 91, 4-[2-(Imidazol-1-yl)ethyl]piperidino-4'-trifluoromethylacetanilide] | 0.1 µM |
| CC(c1ccc(Cl)cc1)N1CCC(CCn2ccnc2)CC1 (stereo not shown) [Example 93, 1-[1-(4-chlorophenyl)ethyl]-4-[2-(imidazol-1-yl)-ethyl]piperidine] | 1.1 µM |
| Cl.Cl.c1ccc(CCCN2CCC(CCn3ccnc3)CC2)cc1 [Example 98, 4-[2-(imidazol-1-yl)ethyl]-1-(3-phenylpropyl)piperidine dihydrochloride] | 0.3 µM |
| c1ccc(CCCN2CCC(Cn3ccnc3)CC2)cc1 [Example 102, 4-Imidazol-1-ylmethyl-1-(3-phenylpropyl)piperidine] | 5.2 µM |
| CC1CN(CCCc2ccccc2)CCC1CCn1ccnc1 (stereo not shown) [Example 103, 4-[2-(Imidazol-1-yl)ethyl]-3-methyl-1-(3-phenylpropyl)piperidine] | 1.9 µM |
| c1ccc(CCCN2CCC(CCn3ccnc3-c3ccccc3)CC2)cc1 [Example 109, 4-[2-(2-Phenylimidazol-1-yl)ethyl]-1-(3-phenylpropyl)piperidine] | 3.6 µM |
| Cc1nc2ccccc2n1CCC1CCN(CCCc2ccccc2)CC1 [Example 112, 2-Methyl-1-{2-[1-(3-phenylpropyl)piperidin-4-yl]ethyl}benzimidazole] | 3 µM |
| CC(Cn1ccnc1)C1CCN(CCCc2ccccc2)CC1 (stereo not shown) [Example 113, 4-[2-(Imidazol-1-yl)-1-methylethyl]-1-(3-phenylpropyl)piperidine] | 0.3 µM |
| c1ccc(CCCN2CCC(CCn3cnc4ccccc43)CC2)cc1 [Example 114, 1-{2-[1-(3-Phenylpropyl)piperidin-4-yl]-ethyl}benzimidazole] | 4.2 µM |
| Cc1nc(Cl)c(Cl)n1CCC1CCN(CCCc2ccccc2)CC1 [Example 115, 4-[2-(4,5-Dichloro-2-methylimidazol-1-yl)ethyl]-1-(3-phenylpropyl)piperidine] | 1.2 µM |
| Cc1ncn(CCC2CCN(CCCc3ccccc3)CC2)c1C [Example 116, 4-[2-(4,5-Dimethylimidazol-1-yl)ethyl]-1-(3-phenylpropyl)piperidine] | 2 µM |
| Cc1nccn1CCC1CCN(CCCc2ccccc2)CC1 [Example 117, 4-[2-(2-Methylimidazol-1-yl)ethyl]-1-(3-phenylpropyl)piperidine] | 0.2 µM |
| Cc1ccc(CCCN2CCC(CCn3ccnc3)CC2)cc1 [Example 122, 4-[2-(Imidazol-1-yl)ethyl]-1-[3-(4-methylphenyl)propyl]piperidine] | 2.8 µM |
| Clc1ccc(CCCN2CCC(CCn3ccnc3)CC2)cc1 [Example 123, 1-[3-(4-Chlorophenyl)propyl]-4-[2-(imidazol-1-yl)ethyl]piperidine] | 0.7 µM |
| CSc1ccc(CCCN2CCC(CCn3ccnc3)CC2)cc1 [Example 127, 4-[2-(Imidazol-1-yl)ethyl]-1-[3-(4-methylthiophenyl)propyl]piperidine] | 1.9 µM |
| c1ccc(CCN2CCC(CCn3ccnc3)CC2)cc1 [Example 128, 4-[2-(Imidazol-1-yl)ethyl]-1-phenethylpiperidine] | 2 µM |
| c1ccc(CCCCN2CCC(CCn3ccnc3)CC2)cc1 [Example 129, 4-[2-(Imidazol-1-yl)ethyl]-1-(4-phenylbutyl)piperidine] | 2.1 µM |

The compounds below were run on paw oedema (assay: Carrageenan-induced rat paw oedema test (Test E)). Settings: oral dosing at 100 mg/kg; active = 20% or greater inhibition of paw oedema in at least two out of three tests.
Assay type: in vivo, rats
Method: Female rats, weight range 125-150 g were fasted overnight. One of the hind legs of each animal was marked with a line at the connection between the cuboid/navicular and calcaneus/talus bones. Groups of six rats were orally dosed at 10 ml/kg, in random order, with a given dose of the test compound given as a solution or suspension in 10% (w/v) aqueous acacia solution. One hour after dosing, 0.1 ml of 1% (w/v) sterile carrageenan λ in normal saline was injected deeply into the plantar surface of the marked hind foot of each rat. The volume of the foot (up to the marked line) was measured immediately after injection using duplicate water displacement readings. Three hours after injection the foot volume was measured again and the percentage increase in foot volume relative to the initial reading was calculated. The increase in foot volume (i.e. the degree of oedema) in drug treated animals when compared with that in the drug untreated control gave the degree of inhibition of paw oedema by the drug. […] Statistical significance was assessed using the Student's t test for single dose studies and Dunnett's test for multiple dose studies. More advantageous compounds were active in both Tests D and E.

| SMILES | deemed to be active in Test E |
| --- | --- |
| c1ccc(OCCN2CCC(CCn3ccnc3)CC2)cc1 [Example 87, 4-[2-(Imidazol-1-yl)ethyl]-1-(2-phenoxyethyl)piperidine] | active |
| CC(c1ccc(Cl)cc1)N1CCC(CCn2ccnc2)CC1 (stereo not shown) [Example 93, 1-[1-(4-chlorophenyl)ethyl]-4-[2-(imidazol-1-yl)-ethyl]piperidine] | active |
| Cl.Cl.c1ccc(CCCN2CCC(CCn3ccnc3)CC2)cc1 [Example 98, 4-[2-(imidazol-1-yl)ethyl]-1-(3-phenylpropyl)piperidine dihydrochloride] | active |
